We go through 42 molecules from the RepoRT retention time repository (doi:10.1016/j.foodchem.2015.11.070).

A short description of the data set: Thermo Scientific Hypersil GOLD aQ, 100 × 2.1 mm, 1.9 µm, 30 °C, 0.3 mL/min, estimated dead time 0.73 min; A: water + 0.01% formic acid + 4 mM ammonium formate; B: methanol + 0.01% formic acid + 4 mM ammonium formate; gradient (min/%B) 0/5 1/5 8/100 12/100. The settings on record: stereoisomer not certain.
In the case of `COP(=O)(OC)OC(C)=CC(=O)N(C)C`, the LC retention time is 6.63 min. `CC(C)C1(C)N=C(c2ncccc2C(=O)O)NC1=O` (configuration not stated): the LC retention time is 6.79 min.

As for `COP(N)(=S)Oc1ccccc1C(=O)OC(C)C` (configuration not stated), the LC retention time is 9.04 min. Then `CCNc1nc(NC(C)C)nc(SC)n1`, with 9.18 min; and `CNC(=O)Oc1cccc2c1OC(C)(C)C2`, with 8.41 min; and `CCOP(=S)(OCC)SCSCC`, with 8.44 min. On to `CC(C)(C)c1ccc(CCOc2ncnc3ccccc23)cc1`, for which the LC retention time is 11.8 min. Regarding `CCCCc1c(C)nc(NCC)nc1OS(=O)(=O)N(C)C`, the LC retention time is 9.87 min.

As to `CC(C)(C)C(O)C(Oc1ccc(-c2ccccc2)cc1)n1cncn1` (configuration not stated), the LC retention time is 10.3 min. With `CCC(CC)Nc1c([N+](=O)[O-])cc(C)c(C)c1[N+](=O)[O-]`, the LC retention time is 11.1 min. Then `CCOC(=O)NCCOc1ccc(Oc2ccccc2)cc1`, with 9.38 min; and `CN(C)NC(=O)CCC(=O)O`, with 1.58 min; and `CC(Cc1ccc(C(C)(C)C)cc1)CN1CCCCC1` (configuration not stated), with 9.29 min.

Regarding `CCCSP(=O)(OCC)SCCC`, the LC retention time was 9.93 min. With `CN(C)c1nc(=O)n(C2CCCCC2)c(=O)n1C`, the LC retention time was 8.61 min.

With `C#CCOS(=O)OC1CCCCC1Oc1ccc(C(C)(C)C)cc1` (configuration not stated), the LC retention time was 10.9 min. Then `CCC(C)c1cc([N+](=O)[O-])cc([N+](=O)[O-])c1OC(=O)OC(C)C` (configuration not stated), with 9.22 min. Consider `CNC(=O)Oc1cccc2ccccc12`, for which the LC retention time is 8.61 min. To `CCNc1nc(NC(C)(C)C)nc(OC)n1` belongs 8.88 min; to `CNC(=O)ON=CC(C)(C)S(C)=O` (configuration not stated), 3.06 min; to `CC(C)=CC1C(C(=O)OCN2C(=O)C3=C(CCCC3)C2=O)C1(C)C` (configuration not stated), 10.7 min.

For `CCOc1ccc(NC(=O)OC(C)C)cc1OCC`, the LC retention time is 9.37 min. `CC(C)c1cc(Oc2ccccc2)cc(C(C)C)c1NC(=S)NC(C)(C)C`: the LC retention time was 11 min.

In the case of `CCOP(=S)(Oc1ccc(C#N)cc1)c1ccccc1` (configuration not stated), the LC retention time was 8.72 min. Take `CCOP(=S)(OCC)SCn1nnc2ccccc2c1=O`: the LC retention time is 9.92 min. Take `CCOC(=O)Nc1cccc(OC(=O)Nc2ccccc2)c1`: the LC retention time was 9.23 min. To `O=c1[nH]c2c(c(=O)n1C1CCCCC1)CCC2` belongs 9.11 min; to `CC(=O)OCC12CC(OC(=O)CC(C)C)C(C)=CC1OC1C(O)C(O)C2(C)C12CO2` (configuration not stated), 8.35 min.

Take `CC(C)N(Cc1ccccc1)C(=O)C(C)(C)C`: the LC retention time was 9.96 min. On to `CNC(=O)ON=CC(C)(C)SC`, for which the LC retention time is 7.89 min.

Regarding `CNC(=O)Oc1cc(C)c(SC)c(C)c1`, the LC retention time is 8.76 min. Consider `COCCOc1ccccc1S(=O)(=O)NC(=O)Nc1nc(OC)nc(OC)n1`, for which the LC retention time was 8.14 min. Then `Cc1cc(=O)[nH]o1`, with 5.67 min; and `COP(=O)(NC(C)=O)SC` (configuration not stated), with 1.58 min.

As for `CNC(=O)Oc1cccc2c1OC(C)(C)C2O` (configuration not stated), the LC retention time is 7.11 min. Then `Cc1ccc2nc3sc(=O)sc3nc2c1`, with 9.19 min; and `C=C(C)C1Cc2c(ccc3c2OC2COc4cc(OC)c(OC)cc4C2C3=O)O1` (configuration not stated), with 10.3 min; and `CNC(=O)CSP(=O)(OC)OC`, with 1.79 min. On to `CCOP(=S)(OCC)Oc1ccc([N+](=O)[O-])cc1`, for which the LC retention time is 9.21 min.

As for `CCOc1cc(OP(=S)(OC)OC)nc(CC)n1`, the LC retention time was 10.2 min.

As to `COc1cc2c(c3oc(=O)c4c(c13)CCC4=O)C1CCOC1O2` (configuration not stated), the LC retention time was 8.26 min.

Take `CNC(=O)CSP(=S)(OC)OC`: the LC retention time was 7.18 min.
